Test results reported in US20190365843A1, “Antimicrobial Activity of Bioactive Compounds and Their Derivatives” (priority 2018, published 2019).

Columns and labels:
[1] = system: Aeromonas sp.; assay: Agar diffusion growth inhibition zone, Aeromonas sp.; assay type: cell-based, Aeromonas species; settings: Aeromonas sp., 6 mm = no activity
Experimental: (§1) Among the bacterial agents tested Gram positive and Gram negative bacterial groups represented by Staphylococcus aureus and Enterococcus species and pathogenic members of Enterobacteriaceae, Vibronaceae, Aeromonadaceae, Pseudomonadaceae were tested. Freshly sub-cultured bacterial strains were inoculated into peptone water and incubated for 4 hours at 37° C. and adjusted to a turbidity of 0.5 (Gram Negative Bacilli), 1 (Gram Positive Cocci) and 4 (Pus cells, GNB, & few Budding yeast cells) Mc Farland standards (10^8 CFU/ml) respectively.
(§2) The different bioactive compounds and their derivatives were dissolved and diluted with solvents (DMSO), number of subsequent dilutions was performed to obtain different concentrations of the bioactive compounds and their derivatives. (Working Concentrations).
(§3) Agar well diffusion method is widely used to evaluate the antimicrobial activity of plants or other synthetic products. The suspension (microbial inoculum) was used to inoculate into Muller Hinton Agar Petri plates by lawn culture. Well (diameter 6 mm) were punched in the agar by sterile borer and filled with 50 μl of dissolved extracts. Plates were incubated in incubator at 37° C. for 24 hours and measured the growth inhibition zone diameters in mm compared with that of control (DMSO) showing no growth.
(§4) The bioactive compounds were tested with desired concentrations in 6 mm filter paper discs (Whatman, no. 3) were impregnated with 10 μL of each of the different dilutions. The discs were allowed to remain at room temperature until complete diluent evaporation and kept under refrigeration until ready to be used. 10 μL of diluents used to products were used as control. Tests were performed by Agar disk-diffusion testing method, which is the official method used in many clinical microbiology laboratories for routine antimicrobial susceptibility testing.
(§5) Similar to the procedure used in Agar well diffusion method, the suspension (microbial inoculum) was used to inoculate into Muller Hinton Agar Petri plates by lawn culture. Then, filter paper discs (about 6 mm in diameter), containing the test compound at a desired concentration, were placed on the agar surface. The Petri dishes were incubated under suitable incubation conditions.
(§6) Bioactive compounds showing zone of inhibition beyond the size of 6 mm are considered to be having an anti-microbial activity.

[2] = system: E. coli ATCC 25922; assay: Agar diffusion growth inhibition zone, E. coli ATCC 25922; assay type: cell-based; settings: Escherichia coli, 6 mm = no activity; for zone of inhibition at 100 mg/mL: ATCC25922, 100 mg; for zone of inhibition at 150 mg/mL: ATCC25922, 150 mg
Experimental: as §1, §2, §3, §4, §5, §6

[3] = system: ETEC; assay: Agar diffusion growth inhibition zone, ETEC; assay type: cell-based, Enterotoxigenic E. coli; settings: for inhibition of growth: ETEC; for zone of inhibition at 100000 µg/disc / zone of inhibition at 150000 µg/disc: Escherichia coli
Experimental: (§7) Agar well diffusion method is widely used to evaluate the antimicrobial activity of plants or other synthetic products. The suspension (microbial inoculum) was used to inoculate into Muller Hinton Agar Petri plates by lawn culture. Well (diameter 6 mm) were punched in the agar by sterile borer and filled with 50 μl of dissolved extracts. Plates were incubated in incubator at 37° C. for 24 hours and measured the growth inhibition zone diameters in mm compared with that of control (DMSO) showing no growth. The antimicrobial agent diffuses in the agar medium and inhibits the growth of the microbial strain tested (Valgas et al., (2016) Methods for in vitro evaluating antimicrobial activity: A review. Journal of Pharmaceutical Analysis. 6(2):71-9).
(§8) Similar to the procedure used in Agar well diffusion method, the suspension (microbial inoculum) was used to inoculate into Muller Hinton Agar Petri plates by lawn culture. Then, filter paper discs (about 6 mm in diameter), containing the test compound at a desired concentration, were placed on the agar surface. The Petri dishes were incubated under suitable incubation conditions. Generally, antimicrobial agent diffuses into the agar and inhibits germination and growth of the test microorganism and then the diameters of inhibition growth zones are measured (Valgas et al., (2007) Screening methods to determine antibacterial activity of natural products. Brazilian Journal of Microbiology. 38:369-80; Balouiri M et al., (2016) Methods for in vitro evaluating antimicrobial activity: A review. Journal of Pharmaceutical Analysis. 6(2):71-9).

[4] = system: Candida abicans; assay: Agar diffusion growth inhibition zone, Candida abicans; assay type: cell-based, Candida albicans; settings: 6 mm = no activity
Experimental: as §1, §2, §3, §4, §5, §6

[5] = system: Klebsiella sp.; assay: Agar diffusion growth inhibition zone, Klebsiella sp.; assay type: cell-based, Klebsiella species; settings: 6 mm = no activity
Experimental: as §1, §2, §3, §4, §5, §6

[6] = system: Citrobacter sp.; assay: Agar diffusion growth inhibition zone, Citrobacter sp.; assay type: cell-based, Citrobacter species; settings: 6 mm = no activity
Experimental: as §1, §2, §3, §4, §5, §6

[7] = system: Pleisiomonas sp.; assay: Agar diffusion growth inhibition zone, Pleisiomonas sp.; assay type: cell-based, Pleisiomonas species; settings: for zone of inhibition at 100 mg/mL / zone of inhibition at 150 mg/mL: Pleisiomonas sp., 6 mm = no activity; for inhibition of growth: Plesiomonas species
Experimental: as §1, §2, §3, §4, §5, §6

[8] = system: EAEC; assay: Agar diffusion growth inhibition zone, EAEC; assay type: cell-based, Enteroaggregative E. coli; settings: Escherichia coli, 6 mm = no activity
Experimental: as §1, §2, §3, §4, §5, §6

[9] = system: S. aureus; assay: Agar diffusion growth inhibition zone, S. aureus; assay type: cell-based, Staphylococcus aureus; settings: for zone of inhibition at 100 mg/mL / zone of inhibition at 150 mg/mL: Staphylococcus aureus, 6 mm = no activity
Experimental: as §1, §2, §3, §4, §5, §6

[10] = system: Shigella sp.; assay: Agar diffusion growth inhibition zone, Shigella sp.; assay type: cell-based, Shigella species; settings: Shigella
Experimental: as §7, §8

[11] = system: Pseudomonas sp.; assay: Agar diffusion growth inhibition zone, Pseudomonas sp.; assay type: cell-based, Pseudomonas species; settings: Pseudomonas
Experimental: as §7, §8

[12] = system: Proteus sp.; assay: Agar diffusion growth inhibition zone, Proteus sp.; assay type: cell-based, Proteus species; settings: for zone of inhibition at 150 mg/mL: Proteus sp., 6 mm = no activity; for zone of inhibition: Proteus species, at both concentrations of 100 mg and 150 mg
Experimental: as §1, §2, §3, §4, §5, §6

[13] = system: Enterococcus sp.; assay: Agar diffusion growth inhibition zone, Enterococcus sp.; assay type: cell-based, Enterococcus species; settings: 6 mm = no activity
Experimental: as §1, §2, §3, §4, §5, §6

[14] = system: Vibrio cholera; assay: Agar diffusion growth inhibition zone, Vibrio cholera; assay type: cell-based, Vibrio cholerae; settings: Vibrio cholerae
Experimental: as §7, §8

[15] = system: Salmonella typhimurium; assay: Agar diffusion growth inhibition zone, Salmonella typhimurium; assay type: cell-based; settings: Salmonella enterica, 6 mm = no activity
Experimental: as §1, §2, §3, §4, §5, §6

SMILES	zone of inhibition at 100 mg/mL [1] [mm]	zone of inhibition at 150 mg/mL [1] [mm]	zone of inhibition at 100 mg/mL [2] [mm]	zone of inhibition at 150 mg/mL [2] [mm]	zone of inhibition at 100 mg/mL [4] [mm]	zone of inhibition at 150 mg/mL [4] [mm]	zone of inhibition at 100 mg/mL [5] [mm]	zone of inhibition at 150 mg/mL [5] [mm]	zone of inhibition at 100 mg/mL [6] [mm]	zone of inhibition at 150 mg/mL [6] [mm]	zone of inhibition at 100 mg/mL [7] [mm]	zone of inhibition at 150 mg/mL [7] [mm]	zone of inhibition at 100 mg/mL [8] [mm]	zone of inhibition at 150 mg/mL [8] [mm]	zone of inhibition at 100 mg/mL [9] [mm]	zone of inhibition at 150 mg/mL [9] [mm]	zone of inhibition at 100000 µg/disc [10] [mm]	zone of inhibition at 150000 µg/disc [10] [mm]	zone of inhibition at 100000 µg/disc [11] [mm]	zone of inhibition at 150000 µg/disc [11] [mm]	other results
COc1cc(/C=C/C(=O)CC(=O)/C=C/c2ccc(O)c(OC)c2)ccc1O [compound 1, Curcumin]	6	6	6	6	6	6	6	6	6	6	10	10	6	6	10	10	6	6	6	6	inhibition of growth [3]: significantly inhibited the growth; zone of inhibition at 100000 µg/disc [3]: 10 mm; zone of inhibition at 150000 µg/disc [3]: 10 mm; inhibition of growth [7]: inhibited; zone of inhibition ([9]; concentration not given): 10 mm; zone of inhibition at 150 mg/mL [12]: 11 mm; zone of inhibition [12]: 11 mm; zone of inhibition at 100 mg/mL [13]: 6 mm; zone of inhibition at 150 mg/mL [13]: 6 mm; inhibition of growth [14]: inhibited the growth; zone of inhibition at 100000 µg/disc [14]: 10 mm; zone of inhibition at 150000 µg/disc [14]: 6 mm; zone of inhibition at 100 mg/mL [15]: 6 mm; zone of inhibition at 150 mg/mL [15]: 6 mm
O=C(/C=C/c1ccc(O)cc1)CC(=O)/C=C/c1ccc(O)cc1 [compound 3, Bis- demethoxycurcumin]	6	6	6	6	6	6	6	6	6	6	9	9	6	6	6	6	6	6	6	6	inhibition of growth [3]: significantly inhibited the growth; zone of inhibition at 100000 µg/disc [3]: 9 mm; zone of inhibition at 150000 µg/disc [3]: 9 mm; inhibition of growth [7]: inhibited; zone of inhibition at 150 mg/mL [12]: 7 mm; zone of inhibition [12]: 7 mm; zone of inhibition at 100 mg/mL [13]: 6 mm; zone of inhibition at 150 mg/mL [13]: 6 mm; zone of inhibition at 100000 µg/disc [14]: 6 mm; zone of inhibition at 150000 µg/disc [14]: 6 mm; zone of inhibition at 100 mg/mL [15]: 6 mm; zone of inhibition at 150 mg/mL [15]: 6 mm
COc1cc(/C=C/C(=O)CC(=O)/C=C/c2ccc(OC(C)=O)c(OC)c2)ccc1OC(C)=O [compound 4, O,O′- Diacetylcurcumin]	6	6	6	6	6	6	6	6	6	6	6	6	6	6	6	6	6	6	6	6	inhibition of growth [3]: significantly inhibited the growth; zone of inhibition at 100000 µg/disc [3]: 9 mm; zone of inhibition at 150000 µg/disc [3]: 9 mm; zone of inhibition at 150 mg/mL [12]: 6 mm; zone of inhibition at 100 mg/mL [13]: 6 mm; zone of inhibition at 150 mg/mL [13]: 6 mm; zone of inhibition at 100000 µg/disc [14]: 6 mm; zone of inhibition at 150000 µg/disc [14]: 6 mm; zone of inhibition at 100 mg/mL [15]: 6 mm; zone of inhibition at 150 mg/mL [15]: 6 mm
COc1cc(CCc2cc(CCc3ccc(O)c(OC)c3)on2)ccc1O [compound 8, Tetrahydrocurcumin Isoxazole]	6	6	6	6	6	6	6	6	6	6	6	6	8	8	6	6	6	6	6	6	zone of inhibition at 150 mg/mL [12]: 6 mm; zone of inhibition at 100 mg/mL [13]: 6 mm; zone of inhibition at 150 mg/mL [13]: 6 mm; zone of inhibition at 100000 µg/disc [14]: 6 mm; zone of inhibition at 150000 µg/disc [14]: 6 mm; zone of inhibition at 100 mg/mL [15]: 6 mm; zone of inhibition at 150 mg/mL [15]: 6 mm
